Laboratory results taken from patent US20170066717A1, “NEW PHENYLAZETIDINECARBOXYLATE OR -CARBOXAMIDE COMPOUNDS” (INVENTIVA, priority 2014, published 2017).

Key:
NURR-1/RXRα = biological target: T1, NURR-1/RXRα (Homo sapiens, UniProt P19793); experiment: Transactivation test, NURR-1-Gal4/RXRα, luciferase reporter in Cos-7 cells; assay type: cell-based; settings: for Emax: COS-7, induction level relative to reference XCT0135908 at 2×10^−5 M (=100%), read-out: hNurr1_RXRaFL Emax (%); for EC50: Cos-7 cells, NURR-1-Gal4/RXRα, luciferase reporter, read-out: hNurr1_RXRaFL EC50
T1 construct: expressed in transfected cells; host or cells: Cos-7 cells
T1 sequence (P19793 whole entry, the tested form may be a part): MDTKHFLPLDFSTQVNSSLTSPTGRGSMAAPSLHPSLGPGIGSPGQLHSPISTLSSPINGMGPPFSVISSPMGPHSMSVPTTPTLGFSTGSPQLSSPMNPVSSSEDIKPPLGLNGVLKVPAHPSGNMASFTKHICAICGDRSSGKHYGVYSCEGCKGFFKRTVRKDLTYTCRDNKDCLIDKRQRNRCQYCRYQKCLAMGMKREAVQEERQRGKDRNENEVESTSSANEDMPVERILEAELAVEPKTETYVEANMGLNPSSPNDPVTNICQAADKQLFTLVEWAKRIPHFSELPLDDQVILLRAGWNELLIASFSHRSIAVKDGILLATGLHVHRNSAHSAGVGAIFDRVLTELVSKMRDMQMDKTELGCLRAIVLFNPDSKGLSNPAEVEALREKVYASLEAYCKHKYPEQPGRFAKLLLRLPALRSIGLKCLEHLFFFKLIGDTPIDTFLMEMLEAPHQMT
T1 sequence (P43354 whole entry partner, the tested form may be a part): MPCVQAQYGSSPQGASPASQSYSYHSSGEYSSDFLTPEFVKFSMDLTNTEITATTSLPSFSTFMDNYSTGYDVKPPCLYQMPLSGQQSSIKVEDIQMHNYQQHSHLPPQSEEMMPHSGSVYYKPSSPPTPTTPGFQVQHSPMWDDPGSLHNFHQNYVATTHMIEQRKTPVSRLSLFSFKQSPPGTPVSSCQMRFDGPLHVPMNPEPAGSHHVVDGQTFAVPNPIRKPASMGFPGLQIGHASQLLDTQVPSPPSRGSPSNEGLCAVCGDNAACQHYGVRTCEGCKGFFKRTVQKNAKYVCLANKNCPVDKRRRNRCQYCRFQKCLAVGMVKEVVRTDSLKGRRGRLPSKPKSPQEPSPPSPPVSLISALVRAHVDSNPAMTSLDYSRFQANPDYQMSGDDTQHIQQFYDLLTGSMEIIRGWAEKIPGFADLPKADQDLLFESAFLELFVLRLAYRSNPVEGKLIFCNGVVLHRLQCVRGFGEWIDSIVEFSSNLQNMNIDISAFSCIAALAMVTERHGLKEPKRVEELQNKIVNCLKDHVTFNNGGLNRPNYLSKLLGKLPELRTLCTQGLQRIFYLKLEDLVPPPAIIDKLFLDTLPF
T1 sequence (P04386 1-147 partner limits assumed): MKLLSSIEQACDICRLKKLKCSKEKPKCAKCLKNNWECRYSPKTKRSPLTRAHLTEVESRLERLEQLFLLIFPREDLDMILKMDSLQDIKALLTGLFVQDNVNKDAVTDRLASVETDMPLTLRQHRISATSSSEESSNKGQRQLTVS

NURR-1/RXRγ = biological target: T2, NURR-1/RXRγ (Homo sapiens, UniProt P48443); experiment: Transactivation test, NURR-1-Gal4/RXRγ, luciferase reporter in Cos-7 cells; assay type: cell-based; settings: for Emax: COS-7, induction level relative to reference XCT0135908 at 2×10^−5 M (=100%), read-out: hNurr1_RXRgFL Emax (%); for EC50: Cos-7 cells, NURR-1-Gal4/RXRγ, luciferase reporter, read-out: hNurr1_RXRgFL EC50
T2 construct: expressed in transfected cells; host or cells: Cos-7 cells
T2 sequence (P48443 whole entry, the tested form may be a part): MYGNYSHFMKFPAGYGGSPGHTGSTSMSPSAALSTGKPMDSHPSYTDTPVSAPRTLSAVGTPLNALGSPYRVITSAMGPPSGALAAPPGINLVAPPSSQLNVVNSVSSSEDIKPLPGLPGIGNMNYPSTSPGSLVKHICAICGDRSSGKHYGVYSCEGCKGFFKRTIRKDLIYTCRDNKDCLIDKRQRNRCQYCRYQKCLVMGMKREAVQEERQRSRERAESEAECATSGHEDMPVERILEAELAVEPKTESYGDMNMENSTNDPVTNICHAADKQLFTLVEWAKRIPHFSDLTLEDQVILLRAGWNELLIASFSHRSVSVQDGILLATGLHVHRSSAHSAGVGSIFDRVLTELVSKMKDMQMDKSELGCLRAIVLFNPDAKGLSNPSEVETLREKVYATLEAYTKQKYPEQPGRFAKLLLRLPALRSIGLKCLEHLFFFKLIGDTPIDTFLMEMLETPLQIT
T2 sequence (P43354 whole entry partner, the tested form may be a part): as the sequence (P43354 whole entry partner, the tested form may be a part) above
T2 sequence (P04386 1-147 partner limits assumed): as the sequence (P04386 1-147 partner limits assumed) above

[1] = induction level relative to reference XCT0135908 at 2×10^−5 M (=100%)

Structure (SMILES)	Emax (NURR-1/RXRα) [%]	EC50 (NURR-1/RXRα) [µM]	Emax (NURR-1/RXRγ) [%]	EC50 (NURR-1/RXRγ) [µM]	hNurr1_RXRaFL Emax (%) (NURR-1/RXRα; [1])	hNurr1_RXRgFL Emax (%) (NURR-1/RXRγ; [1])
O=C(O)C1CN(c2cccc(-c3cccc(C(F)(F)F)c3)c2)C1 [Example 14, 1-[3-[3-(trifluoromethyl)phenyl]phenyl]azetidine-3-carboxylic acid]	99	0.053	106	0.114	–	–
Cc1cn(-c2cccc(N3CC(C(=O)NCC(O)CO)C3)c2)c2ccc(C(F)(F)F)cc12 (stereo not drawn) [Example 157, N-(2,3-dihydroxypropyl)-1-[3-[3-methyl-5-(trifluoromethyl)indol-1-yl]phenyl]azetidine-3-carboxamide]	120	0.003	114	0.006	–	–
Cc1cn(-c2cccc(N3CC(C(=O)NC4CCN(C)CC4)C3)c2)c2ccc(C(F)(F)F)cc12 [Example 162, N-(1-methyl-4-piperidyl)-1-[3-[3-methyl-5-(trifluromethyl)indol-1-yl]phenyl]azetidine-3-carboxamide]	100	0.823	93	1.38	–	–
Cc1cn(-c2cccc(N3CC(C(=O)NCCN4CCOCC4)C3)c2)c2ccc(C(F)(F)F)cc12 [Example 170, 1-[3-[3-methyl-5-(trifluoromethyl)indol-1-yl]phenyl]-N-(2-morpholinoethyl)azetidine-3-carboxamide]	100	0.027	90	0.032	–	–
Cc1cn(-c2cc(C(C)C)cc(N3CC(C(=O)O)C3)c2)c2ccc(C(F)(F)F)cc12 [Example 53, 1-[3-isopropyl-5-[3-methyl-5-(trifluoromethyl)indol-1-yl]phenyl]azetidine-3-carboxylic acid]	83	0.141	76	0.212	–	–
CNS(=O)(=O)c1cn(-c2cccc(N3CC(C(=O)O)C3)c2)c2ccc(C(F)(F)F)cc12 [Example 137]	82	0.995	85	2.09	–	–
Cc1nc(-c2ccccc2)oc1-c1cccc(N2CC(C(=O)O)C2)c1 [Example 33, 1-[3-(4-methyl-2-phenyl-oxazol-5-yl)phenyl]azetidine-3-carboxylic acid]	119	> 5	71	> 5	–	–
O=C(O)C1CN(c2cccc(-c3ccnc(C(F)(F)F)c3)c2)C1 [Example 32, 1-[3-[2-(trifluoromethyl)-4-pyridyl]phenyl]azetidine-3-carboxylic acid]	71	> 5	62	> 5	–	–
Cc1cn(-c2cccc(N3CC(C(=O)NCCCN(C)C)C3)c2)c2ccc(C(F)(F)F)cc12 [Example 174, N-[3-(dimethylamino)propyl]-1-[3-[3-methyl-5-(trifluoromethyl)indol-1-yl]phenyl]-azetidine-3-carboxamide]	91	0.341	95	0.62	–	–
CC(C)(C)c1cc(F)cc(-c2cccc(N3CC(C(=O)O)C3)c2)c1 [Example 75, 1-[3-(3-tert-butyl-5-fluorophenyl)phenyl]azetidine-3-carboxylic acid]	106	0.057	85	0.04	–	–
O=C(O)C1CN(c2cccc(-c3ncc(Cl)c4ccccc34)c2)C1 [Example 36, 1-[3-(4-chloro-1-isoquinolyl)phenyl]azetidine-3-carboxylic acid]	140	0.449	121	1	–	–
O=C(O)C1CN(c2cccc(N3CCOc4cc(C(F)(F)F)ncc43)c2)C1 [Example 240, sodium 1-[3-[7-(trifluoromethyl)-2,3-dihydropurido[4,3][1,4]oxazin-4-yl]phenyl]azetidine-3-carboxylate]	98	1.83	83	3.26	–	–
Cc1cc(-c2cccc(C(F)(F)F)c2C)cc(N2CC(C(=O)O)C2)c1 [Example 15, 1-[3-methyl-5-[2-methyl-3-(trifluoromethyl)phenyl]phenyl]azetidine-3-carboxylic acid]	95	0.022	85	0.043	–	–
O=C(O)C1CN(c2cccc(-n3c(=O)n(CC4CCCC4)c4cc(C(F)(F)F)ccc43)c2)C1 [Example 149, 1-[3-[3-(cyclopetnylmethyl)-2-oxo-5-(trifluoromethyl)benzimidazol-1-yl]phenyl]azetidine-3-carboxylic acid]	99	0.008	97	0.019	–	–
O=C(O)C1CN(c2cccc(-c3cc(C(F)(F)F)cc(Cl)n3)c2)C1 [Example 74, 1-[3-[6-chloro-4-(trifluoromethyl)2-pyridyl]phenyl]azetidine-3-carboxylic acid]	121	0.185	86	0.223	–	–
CC1COc2cc(C(F)(F)F)ccc2N1c1cccc(N2CC(C(=O)O)C2)c1 (single isomer, unassigned; isomer 2) [Example 124-2, 1-[3-[3-methyl-7-(trifluromethyl)-2,3-dihydro-1,4-benzoxazin-4-yl]phenyl]azetidine-3-carboxylic acid, isomer 2]	–	0.01	–	0.017	107	95
Cc1cc(-c2cc(N(C)C)cc(C(F)(F)F)c2)cc(N2CC(C(=O)O)C2)c1 [Example 2, 1-[3-[3-(dimethylamino)-5-(trifluoromethyl)phenyl]-5-methylphenyl]azetidine-3-carboxylate acid]	119	0.019	119	0.032	–	–
CC(C)c1cc2c(c(-c3cccc(N4CC(C(=O)O)C4)c3)c1)CCC(C)(C)O2 [Example 70, 1-[3-(7-isopropyl-2,2-dimethylchroman-5-yl)phenyl]azetidine-3-carboxylic acid]	104	0.009	120	0.012	–	–
Cc1cn(-c2cccc(N3CC(C(=O)NC4COC4)C3)c2)c2ccc(C(F)(F)F)cc12 [Example 163, 1-[3-[3-methyl-5-(trifluoromethyl)indol-1-yl]phenyl]-N-(oxetan-3-yl)azetidine-3-carboxamide]	123	0.007	125	0.009	–	–
Cc1cn(-c2cccc(N3CC(C(=O)NCC4CC4)C3)c2)c2ccc(C(F)(F)F)cc12 [Example 177, N-(cyclopropylmethyl)-1-[3-[3-methyl-5-(trifluoromethyl)indol-1-yl]phenyl]azetidine-3-carboxamide]	104	0.007	109	0.01	–	–
Cc1cc(-c2cccc(N3CCCCC3)c2)cc(N2CC(C(=O)O)C2)c1 [Example 17, 1-[3-methyl-5-[3-(1-piperidyl)phenyl]phenyl]azetidine-carboxylic acid]	99	0.053	84	0.119	–	–
Cc1cn(-c2cccc(N3CC(C(=O)NCC(C)C)C3)c2)c2ccc(C(F)(F)F)cc12 [Example 167]	109	0.025	131	0.041	–	–
CCC(CC)COc1ccc(C(F)(F)F)cc1-c1cccc(N2CC(C(=O)O)C2)c1 [Example 103, 1-[3-[2-(2-ethylbutoxy)-5-(trifluoromethyl)phenyl]phenyl]azetidine-3-carboxylic acid]	62	0.016	58	0.017	–	–
Cc1cn(-c2cccc(N3CC(C(=O)NC4CCC(F)(F)CC4)C3)c2)c2ccc(C(F)(F)F)cc12 [Example 183, N-(4,4-difluorocyclophexyl)-1-[3-[3-5-(trifluoromethyl)indol-1-yl]phenyl]-azetidine-3-carboxamide]	108	0.092	127	0.316	–	–
CCC1(CC)C=C(c2cccc(N3CC(C(=O)O)C3)c2)c2ccc(C(F)(F)F)cc2O1 [Example 265]	79	0.003	79	0.008	–	–
O=C(O)C1CN(c2cccc(-c3ccc(Cl)c(C(F)(F)F)n3)c2)C1 [Example 76, 1-[3-[5-chloro-6-(trifluromethyl)-2-pyridyl]phenyl]azetidine-3-carboxylic acid]	71	0.741	51	2.56	–	–
O=C(O)C1CN(c2cccc(-n3cc(CC4CCOCC4)c4cc(C(F)(F)F)ccc43)c2)C1 [Example 129, 1-[3-[3-(tetrahydropyran-4-ylmethyl)-5-(trifluoromethyl)indol-1-yl]phenyl]azetidine-3-carboxylic acid]	90	0.007	88	0.01	–	–
Cc1cc(-c2cccc(C3=NC(C)(C)CO3)c2)cc(N2CC(C(=O)O)C2)c1 [Example 19, 1-[3-[3-(4,4-dimethyl-5H-oxazol-2-yl)phenyl]-5-methylphenyl]azetidine-3-carboxylic acid]	97	1.43	71	1.77	–	–
Cc1cc(-c2cc(Cl)cc(C(F)(F)F)c2)cc(N2CC(C(=O)O)C2)c1 [Example 16, 1-[3-[3-chloro-5-(trifluoromethyl)phenyl]-5-methylphenyl]azetidine-3-carboxylic acid]	119	0.002	103	0.004	–	–
CN(C)CCOC(=O)C1CN(c2cccc(N3CC(C)(C)Oc4cc(C(F)(F)F)ccc43)c2)C1 [Example 272, 2-dimethylaminoethyl 1-[3-[2,2-dimethyl-7-(trifluomethyl)-3H-1,4-benzoxazin-4-yl]phenyl]azetidine-3-carboxylate]	117	0.004	124	0.004	–	–
